Values quoted from earlier work, collected in patent US20110092597A1, “METHOD FOR TREATING HERPES VIRUS INFECTION” (priority 2009, published 2011).

Experiments:
[1] = not given; remark: listed apart in the source

Solubility in water | Bioavailability [1] | Structure (SMILES)
relatively low | – | O=C(O)Cc1ccccc1Nc1c(Cl)cccc1Cl [Diclofenac, 2-(2,6-dichloro-anilino)-phenyl-acetic acid]
poorly soluble | low | Nc1nc2c(ncn2COCCO)c(=O)[nH]1 [acyclovir, acycloguanosine]
